Tests used:
[1] = Subcutaneous plasma and sciatic nerve pharmacokinetic studies in mice; format: in vivo; conditions: 10 mg/kg equivalent s.q., 10-120 min post dose
Description: Bioanalysis of parent and intact prodrug in plasma and tissues: Prior to extraction, frozen samples were thawed on ice. For plasma, 50 μL of the sample was transferred into siliconized microcentrifuge tubes. For sciatic nerves, the samples were weighed in a 1.7 mL tubes and homogenized in 5× the volume of methanol. The calibration curves were prepared using naïve plasma and sciatic nerves in a concentration range of 50-10000 pmol/g or pmol/mL. Sample preparation involved a single liquid extraction by addition of 300 μL of methanol with internal standard (losartan 200 nM in methanol), followed by vortexing for 30 s and then centrifugation at 10,000×g for 10 min. Supernatant (about 250 μL) was transferred and evaporated to dryness at 40° C. under a gentle stream of nitrogen. The residue was reconstituted with 50 μL of 30% acetonitrile and analysed by LC/MS/MS.
Chromatographic analysis was performed using an Accela™ ultra high-performance system consisting of an analytical pump, and an autosampler coupled with TSQ Vantage mass spectrometer (Thermo Fisher Scientific Inc., Waltham, MA). […] The mobile phase used was composed of 0.1% formic acid in acetonitrile and 0.1% formic acid in H2O with gradient elution, starting with 10% (organic) linearly increasing to 99% up to 2.5 min, maintaining at 99% (2.5-3.5 min) and reequlibrating to 10% by 4.5 min. The total run time for each analyte was 4.5 min. The mass transitions (M−H)− used for Compound 50 were 280.077>175.168, 203.156; and for losartan were 420.895>127.040, 179.108.

[2] = In vitro metabolic stability in mouse plasma; format: in vitro ADME; conditions: 37° C.
Description: (§1) For metabolic stability, plasma (mouse, and human) and liver microsomes (mouse and human) were used. For stability, prodrugs (10 μM) were spiked in each matrix and incubated in an orbital shaker at 37° C. At predetermined times (0, 30 and 60 min), 100 μL aliquots of the mixture in triplicate were removed and the reaction quenched by addition of three times the volume of ice cold acetonitrile spiked with the internal standard (losartan 5 μM). The samples were vortexed for 30 s and centrifuged 12000 g for 10 min. 50 μL supernatant diluted with 50 μL water was transferred to a 250 μL polypropylene vial sealed with a Teflon cap. Prodrug disappearance was monitored over time using a liquid chromatography and tandem mass spectrometry (LC/MS/MS) method as described below.
(§2) For LC/MS/MS, prodrugs were separated with Thermo Scientific Accela UPLC system coupled to Accela open autosampler on an Agilent C18 (100×2.1 mm id) UPLC column. The autosampler was temperature controlled and operating at 10° C. […] The column effluent was monitored using TSQ Vantage triple-quadrupole mass spectrometric detector, equipped with an electrospray probe set in the positive ionization mode. […]
(§3) For quantification of compound remaining, disappearance of prodrugs was measured from ratio of peak areas of analyte to IS. Percentage remaining was calculated in the following manner: […]

[3] = tested on: rat chronic constriction injury (CCI) model of neuropathic pain; assay: Chronic constrictive injury (CCI) model of neuropathic pain, thermal hyperalgesia; format: in vivo; conditions: 1 mg/kg subcutaneous dose (dose equivalent of 50)
[4] = In vitro metabolic stability in human plasma; format: in vitro ADME; conditions: 37° C.
Description: as §1, §2, §3

[5] = tested on: rat chronic constriction injury (CCI) model of neuropathic pain; assay: Chronic constrictive injury (CCI) model of neuropathic pain, thermal hyperalgesia; format: in vivo; conditions: oral daily, 3 mg/kg dose equivalent of 1 (50), 4.6 mg/kg/day for 12
Description: All experimental protocols were approved by the Institutional Animal Care and Use Committee at Johns Hopkins University (Baltimore, MD) and adhered to all of the applicable institutional and governmental guidelines for the humane treatment of laboratory animals. Male Sprague-Dawley rats (200-250 g; n=10-15 per group) were subjected to peripheral neuropathy injury by constriction of the sciatic nerve performed according to methods described previously. (Novakova, et al., 2016; Bennett, et al., 1988; Attal, et al., 1990) In brief, the common sciatic nerve was exposed and 4 ligatures (4.0 chromic gut) tied loosely around it with 1 mm spacing. Wound clips were used to close wounds and animals were returned to home cages for recovery. Hyperalgesia testing was initiated 10 days post-surgery. Pain sensitivity was assessed by determining withdrawal latencies in response to a constant thermal stimulus directed to the plantar surface of the hind paw using a Basile Plantar apparatus (Ugo Basile, Vaarese, Italy) according to the method described by Hargreaves et al. (Hargreaves, et al., 1988) Apparatus was calibrated so that normal rats respond to the stimulus within 15 sec of application. Withdrawal latency (i.e., the time taken for the rat to withdraw its paw from the heat source) was measured to the nearest 0.1 sec. The “difference in score” was calculated by subtracting the average latency of the paw on the non-ligated versus ligated side. Each animal was tested during two experimental sessions per week, with three days allowed to elapse between test sessions. Test agents, prodrug 12 (3 mg/kg equivalent of 1), or gabapentin (50 mg/kg and 100 mg/kg po) as a positive control were dosed daily throughout the study via oral gavage and one hour before testing on experimental days. Statistical analysis with students t-test was used to determine differences between control and treatment group.

[6] = Oral plasma pharmacokinetic studies in mice; format: in vivo; conditions: mice (n=3), 10 mg/kg equivalent dose, plasma 30 min post dose
Description: All pharmacokinetic studies in mice were conducted according to protocols approved by the Animal Care and Use Committee at Johns Hopkins University (Baltimore, MD). Briefly, male CD 1 mice between 25 g and 30 g were obtained from Harlan Laboratories (Indianapolis, Indiana), and maintained on a 12-hour light-dark cycle with ad libitum access to food and water.
Compound 1 and its prodrugs were administered to male mice as a single (p.o.) dose of 10 mg/kg equivalent. Dosing solutions were prepared on the day of the experiment in 50 mM HEPES buffered saline and pH adjusted to 7.4. The mice were sacrificed by pentobarbital injection at 30 minutes post drug administration, and blood collected via cardiac puncture was placed into iced heparin-coated BD microtainers. Blood samples were spun at 2,000 g for 15 minutes, plasma was removed and stored at −80° C. until LC-MS analysis as previously described. (Novakova, et al., 2016) Briefly, chromatographic analysis was performed using an Accela™ ultra high-performance system consisting of an analytical pump, and an autosampler coupled with TSQ Vantage mass spectrometer (Thermo Fisher Scientific Inc., Waltham, MA). […]
Bioanalysis of parent and intact prodrug in plasma and tissues: Prior to extraction, frozen samples were thawed on ice. […] The residue was reconstituted with 50 μL of 30% acetonitrile and analysed by LC/MS/MS. […]

| SMILES | plasma (systemic) levels of active compound 50 after subcutaneous dosing ([1]; plasma) | sciatic nerve exposure of active compound 50 after subcutaneous dosing ([1]; sciatic nerve) | metabolic stability in mouse plasma [2] | reversal of thermal hyperalgesia [3] | metabolic stability in human plasma [4] | antinociceptive effect on thermal hyperalgesia, ligated side [5] | release / plasma exposure of active compound 50 after oral dosing [6] |
| --- | --- | --- | --- | --- | --- | --- | --- |
| CC(=O)ONC(=O)CCC(Cc1ccc(C(=O)O)cc1)C(=O)O (stereo not shown) [Compound 7, 4-(5-(Acetoxyamino)-2-carboxy-5-oxopentyl)benzoic acid] | high systemic levels | excellent nerve exposure | moderately stable | efficacious | moderately stable | efficacious | – |
| CC(=O)ONC(=O)CCC(Cc1cccc(C(=O)O)c1)C(=O)O (stereo not shown) [Compound 34, 3-(5-(Acetoxyamino)-2-carboxy-5-oxopentyl)benzoic acid] | – | – | – | – | – | – | best release |

Reference: patent US11866394B2, “Prodrugs of hydroxamate-based GCPII inhibitors” (The Johns Hopkins University, priority 2016, dated 2024)
